Assay results reported in patent US9796733B2, “Imidazo-pyrazine derivatives useful as soluble guanylate cyclase activators” (Merck Sharp & Dohme Corp., priority 2014, dated 2017).

Target: T1, sGC α1/β1 heterodimer (Homo sapiens, UniProt Q02108+Q02153)
T1 construct: expressed in transfected cells; host or cells: CHO-K1 (clone #7, CHO-K1/sGC)
T1 sequence (Q02108 1-690): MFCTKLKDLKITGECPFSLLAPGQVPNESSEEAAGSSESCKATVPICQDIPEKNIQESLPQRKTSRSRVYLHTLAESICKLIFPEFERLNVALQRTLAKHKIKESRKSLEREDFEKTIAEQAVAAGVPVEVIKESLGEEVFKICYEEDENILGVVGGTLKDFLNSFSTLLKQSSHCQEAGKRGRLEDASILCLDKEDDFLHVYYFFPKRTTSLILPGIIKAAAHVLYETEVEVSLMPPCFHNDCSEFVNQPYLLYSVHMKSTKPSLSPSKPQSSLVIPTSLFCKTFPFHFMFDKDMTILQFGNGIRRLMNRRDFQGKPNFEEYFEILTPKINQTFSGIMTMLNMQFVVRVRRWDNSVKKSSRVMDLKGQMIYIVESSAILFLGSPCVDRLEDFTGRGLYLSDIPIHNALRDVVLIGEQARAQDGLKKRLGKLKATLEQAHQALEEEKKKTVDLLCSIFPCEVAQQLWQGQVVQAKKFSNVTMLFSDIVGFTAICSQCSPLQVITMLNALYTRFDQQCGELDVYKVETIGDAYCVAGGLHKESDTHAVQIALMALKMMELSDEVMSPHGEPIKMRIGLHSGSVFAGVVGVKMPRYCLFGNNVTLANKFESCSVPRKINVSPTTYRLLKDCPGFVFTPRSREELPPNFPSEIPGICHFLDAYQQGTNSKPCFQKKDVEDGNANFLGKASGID
T1 sequence (Q02153 1-619): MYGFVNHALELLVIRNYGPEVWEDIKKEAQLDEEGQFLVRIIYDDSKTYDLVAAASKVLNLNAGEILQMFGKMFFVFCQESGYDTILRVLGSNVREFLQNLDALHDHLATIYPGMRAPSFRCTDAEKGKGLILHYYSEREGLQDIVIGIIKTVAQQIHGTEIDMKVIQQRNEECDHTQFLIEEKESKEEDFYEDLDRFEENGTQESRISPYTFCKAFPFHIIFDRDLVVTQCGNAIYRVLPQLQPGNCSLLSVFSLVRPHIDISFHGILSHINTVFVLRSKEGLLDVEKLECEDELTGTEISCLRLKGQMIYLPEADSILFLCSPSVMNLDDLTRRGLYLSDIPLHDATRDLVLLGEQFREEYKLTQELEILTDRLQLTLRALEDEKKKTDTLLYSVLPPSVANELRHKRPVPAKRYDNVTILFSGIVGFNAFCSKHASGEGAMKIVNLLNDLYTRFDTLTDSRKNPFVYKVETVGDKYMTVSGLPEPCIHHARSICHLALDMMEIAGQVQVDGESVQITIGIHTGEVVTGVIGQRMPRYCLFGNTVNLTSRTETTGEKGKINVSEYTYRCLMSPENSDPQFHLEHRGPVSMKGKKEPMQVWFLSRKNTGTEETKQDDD
Assay: Cell-based sGC functional assay (CASA assay): cGMP generation in CHO-K1/sGC cells, HTRF detection
Conditions: for Emax: CHO-K1, percent activation relative to standard Compound A in CHO-K1/sGC cells, read-out: % Act.; for EC50: inflection point (IP) of cGMP generation in CHO-K1/sGC cells, 4P fit, activity expressed as percentage of Compound A
Procedure, shortened: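 Stable CHO-K1/sGC cells in EBSS buffer with 5 mM MgCl2, 0.05% BSA and 0.5 mM IBMX were incubated with compound (2.5% DMSO final) ±1 μM DETA-NO for 1 hr at 37° C. cGMP was measured by HTRF. Activation is expressed as % of reference HDA Compound A maximum, with IP and max fold induction from a 4P fit.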

Row | Compound | Emax [%] | EC50 [µM]
1 | CC1(C(=O)NC2CC2)C(=O)Nc2nc(-c3cn4cc(C(F)(F)F)nc4c(Cc4cccc(F)c4F)n3)nc(N)c21 (centres unmarked) [Example 43A, 4-amino-N-cyclopropyl-2-(8-(2,3-difluorobenzyl)-2-(trifluoromethyl)imidazo[1,2-a]pyrazin-6-yl)-5-methyl-6-oxo-6,7-dihydro-5H-pyrrolo[2,3-d]pyrimidine-5-carboxamide] | 86 | 0.182
2 | Nc1nc(-c2cn3cc(C(F)(F)F)nc3c(Cc3cccc(F)c3)n2)nc2c1C(C(=O)NC1CC1)(C1CC1)C(=O)N2 (centres unmarked) [Example 44B, 4-amino-N,5-dicyclopropyl-2-(8-(3-fluorobenzyl)-2-(trifluoromethyl)imidazo[1,2-a]pyrazin-6-yl)-6-oxo-6,7-dihydro-5H-pyrrolo[2,3-d]pyrimidine-5-carboxamide] | 88 | 0.286
3 | Nc1nc(-c2cn3cc(C(F)(F)F)nc3c(Cc3ccccc3F)n2)nc2c1C(C(=O)NC1CC1)(C1CC1)C(=O)N2 (centres unmarked) [Example 45A, 4-amino-N,5-dicyclopropyl-2-(8-(2-fluorobenzyl)-2-(trifluoromethyl)imidazo[1,2-a]pyrazin-6-yl)-6-oxo-6,7-dihydro-5H-pyrrolo[2,3-d]pyrimidine-5-carboxamide] | 86 | 0.668
4 | CC1(C(=O)NC2CC2)C(=O)Nc2nc(-c3cn4cc(C(F)(F)F)nc4c(Cc4cccc(F)c4)n3)nc(N)c21 (centres unmarked) [Example 46A, 4-amino-N-cyclopropyl-2-(8-(3-fluorobenzyl)-2-(trifluoromethyl)imidazo[1,2-a]pyrazin-6-yl)-5-methyl-6-oxo-6,7-dihydro-5H-pyrrolo[2,3-d]pyrimidine-5-carboxamide] | 124 | 0.57
5 | CC1(C(=O)NC2CC2)C(=O)Nc2nc(-c3cn4cc(C(F)(F)F)nc4c(Cc4ccccc4F)n3)nc(N)c21 (centres unmarked) [Example 47B, 4-amino-N-cyclopropyl-2-(8-(2-fluorobenzyl)-2-(trifluoromethyl)imidazo[1,2-a]pyrazin-6-yl)-5-methyl-6-oxo-6,7-dihydro-5H-pyrrolo[2,3-d]pyrimidine-5-carboxamide] | 118 | 0.735
6 | Nc1nc(-c2cn3cc(C(F)(F)F)nc3c(Cc3cccc(F)c3F)n2)nc2c1C(C(=O)NC1CC1)(C1CC1)C(=O)N2 (centres unmarked) [Example 48B, 4-amino-N,5-dicyclopropyl-2-(8-(2,3-difluorobenzyl)-2-(trifluoromethyl)imidazo[1,2-a]pyrazin-6-yl)-6-oxo-6,7-dihydro-5H-pyrrolo[2,3-d]pyrimidine-5-carboxamide] | 93 | 0.442
7 | Nc1nc(-c2cn3cc(C(F)(F)F)nc3c(Cc3ccc(F)cc3)n2)nc2c1C(C(=O)NC1CC1)(C1CC1)C(=O)N2 (centres unmarked) [Example 50B, 4-amino-N,5-dicyclopropyl-2-(8-(4-fluorobenzyl)-2-(trifluoromethyl)imidazo[1,2-a]pyrazin-6-yl)-6-oxo-6,7-dihydro-5H-pyrrolo[2,3-d]pyrimidine-5-carboxamide] | 86 | 0.829
8 | Nc1nc(-c2cn3cc(C(F)(F)F)nc3c(Cc3ccccc3)n2)nc2c1C(C(=O)NC1CC1)(C1CC1)C(=O)N2 (centres unmarked) [Example 51A, 4-amino-2-(8-benzyl-2-(trifluoromethyl)imidazo[1,2-a]pyrazin-6-yl)-N,5-dicyclopropyl-6-oxo-6,7-dihydro-5H-pyrrolo[2,3-d]pyrimidine-5-carboxamide] | 93 | 0.89
9 | CC1(C(=O)NC2CC2)C(=O)Nc2nc(-c3cn4cc(C(F)(F)F)nc4c(Cc4ccc(F)c(F)c4)n3)nc(N)c21 (centres unmarked) [Example 52A, 4-amino-N-cyclopropyl-2-(8-(3,4-difluorobenzyl)-2-(trifluoromethyl)imidazo[1,2-a]pyrazin-6-yl)-5-methyl-6-oxo-6,7-dihydro-5H-pyrrolo[2,3-d]pyrimidine-5-carboxamide] | 93 | 0.95
10 | Nc1nc(-c2cn3ccnc3c(CCC(F)(F)C(F)(F)F)n2)nc2c1C(c1nnc(C3CC3)s1)(C1CC1)C(=O)N2 (centres unmarked) [Example 54A, 4-amino-5-cyclopropyl-5-(5-cyclopropyl-1,3,4-thiadiazol-2-yl)-2-(8-(3,3,4,4,4-pentafluorobutyl)imidazo[1,2-a]pyrazin-6-yl)-5H-pyrrolo[2,3-d]pyrimidin-6(7H)-one] | 91 | 0.144
11 | CC(C)c1nnc(C2(C3CC3)C(=O)Nc3nc(-c4cn5ccnc5c(CCC(F)(F)C(F)(F)F)n4)nc(N)c32)s1 (centres unmarked) [Example 55A, 4-amino-5-cyclopropyl-5-(5-isopropyl-1,3,4-thiadiazol-2-yl)-2-(8-(3,3,4,4,4-pentafluorobutyl)imidazo[1,2-a]pyrazin-6-yl)-5H-pyrrolo[2,3-d]pyrimidin-6(7H)-one] | 93 | 0.634
12 | Nc1nc(-c2cn3ccnc3c(CCC(F)(F)C(F)(F)F)n2)nc2c1C(c1nnc(C3CC3)o1)(C1CC1)C(=O)N2 (centres unmarked) [Example 56B, 4-amino-5-cyclopropyl-5-(5-cyclopropyl-1,3,4-oxadiazol-2-yl)-2-(8-(3,3,4,4,4-pentafluorobutyl)imidazo[1,2-a]pyrazin-6-yl)-5H-pyrrolo[2,3-d]pyrimidin-6(7H)-one] | 89 | 0.772
13 | Cc1nnc(C2(C)C(=O)Nc3nc(-c4cn5ccnc5c(CCC(F)(F)C(F)(F)F)n4)nc(N)c32)o1 (centres unmarked) [Example 57A, 4-amino-5-methyl-5-(5-methyl-1,3,4-oxadiazol-2-yl)-2-(8-(3,3,4,4,4-pentafluorobutyl)imidazo[1,2-a]pyrazin-6-yl)-5H-pyrrolo[2,3-d]pyrimidin-6(7H)-one] | 101 | 0.92
14 | Cc1nnc(C2(C)C(=O)Nc3nc(-c4cn5ccnc5c(CCC(F)(F)C(F)(F)F)n4)nc(N)c32)s1 (centres unmarked) [Example 58A, 4-amino-5-methyl-5-(5-methyl-1,3,4-thiadiazol-2-yl)-2-(8-(3,3,4,4,4-pentafluorobutyl)imidazo[1,2-a]pyrazin-6-yl)-5H-pyrrolo[2,3-d]pyrimidin-6(7H)-one] | 93 | 0.636
15 | CC(C)n1cc(C2(C)C(=O)Nc3nc(-c4cn5ccnc5c(Cc5ccc(F)cc5)n4)nc(N)c32)nn1 (centres unmarked) [Example 63A, 4-Amino-2-(8-(4-fluorobenzyl)imidazo[1,2-a]pyrazin-6-yl)-5-(1-isopropyl-1H-1,2,3-triazol-4-yl)-5-methyl-5H-pyrrolo[2,3-d]pyrimidin-6(7H)-one] | 99 | 0.109
16 | CCn1cc(C2(C)C(=O)Nc3nc(-c4cn5ccnc5c(Cc5ccc(F)cc5)n4)nc(N)c32)nn1 (centres unmarked) [Example 64A, 4-amino-5-(1-ethyl-1H-1,2,3-triazol-4-yl)-2-(8-(4-fluorobenzyl)imidazo[1,2-a]pyrazin-6-yl)-5-methyl-5H-pyrrolo[2,3-d]pyrimidin-6(7H)-one] | 115 | 0.196
17 | Cn1cc(C2(C)C(=O)Nc3nc(-c4cn5ccnc5c(Cc5ccc(F)cc5)n4)nc(N)c32)nn1 (centres unmarked) [Example 65A, 4-amino-2-(8-(4-fluorobenzyl)imidazo[1,2-a]pyrazin-6-yl)-5-methyl-5-(1-methyl-1H-1,2,3-triazol-4-yl)-5H-pyrrolo[2,3-d]pyrimidin-6(7H)-one] | 108 | 0.256
18 | C#CC1(C)C(=O)Nc2nc(-c3cn4ccnc4c(CCC(F)(F)C(F)(F)F)n3)nc(N)c21 (centres unmarked) [Example 66A, 4-amino-5-ethynyl-5-methyl-2-(8-(3,3,4,4,4-pentafluorobutyl)imidazo[1,2-a]pyrazin-6-yl)-5H-pyrrolo[2,3-d]pyrimidin-6(7H)-one] | 127 | 0.252
19 | CC(C)n1cc(C2(C)C(=O)Nc3nc(-c4cn5ccnc5c(CCC(F)(F)C(F)(F)F)n4)nc(N)c32)nn1 (centres unmarked) [Example 67A, 4-amino-5-(1-isopropyl-1H-1,2,3-triazol-4-yl)-5-methyl-2-(8-(3,3,4,4,4-pentafluorobutyl)imidazo[1,2-a]pyrazin-6-yl)-5H-pyrrolo[2,3-d]pyrimidin-6(7H)-one] | 120 | 0.746
